Measurements as given in publication PMC10504751, “Chalcone/1,3,4-Oxadiazole/Benzimidazole hybrids as novel anti-proliferative agents inducing apoptosis and inhibiting EGFR & BRAFV^600E” (BMC Chemistry, 2023).

Tests used:
Experiment in all cases: NCI one-dose SRB anti-proliferative screen
BT-549 = format: cell-based; details: Homo sapiens; BT-549 (Breast Cancer), NCI one dose 10 µM; read-out: Cell growth inhibition %
Procedure: (§1) The twenty-four synthesized compounds were submitted to the National Cancer Institute (NCI), USA. Eighteen hybrids 7a-h, 7k-r, 7u, and 7v were selected by NCI for one-dose assessment of their anti-proliferative activities at 10 µM dose by Sulforhodamine B colorimetric assay. The assessment was performed in 60 cell lines derived from nine tumor subpanels, comprising lung, leukemia, melanoma, colon, renal, CNS, prostate, breast, and ovarian cancer cell lines.
(§2) The methodology of the NCI anti-proliferative screening has been described in details elsewhere (http://www.dtp.nci.nih.gov).

MCF7 = format: cell-based; details: Homo sapiens; MCF7 (Breast Cancer), NCI one dose 10 µM; read-out: Cell growth inhibition %
Procedure: as §1, §2

SK-MEL-2 = format: cell-based; details: Homo sapiens; SK-MEL-2 (Melanoma), NCI one dose 10 µM; read-out: Cell growth inhibition %
Procedure: as §1, §2

MALME-3M = format: cell-based; details: Homo sapiens; MALME-3M (Melanoma), NCI one dose 10 µM; read-out: Cell growth inhibition %
Procedure: as §1, §2

HS 578T = format: cell-based; details: Homo sapiens; HS 578T (Breast Cancer), NCI one dose 10 µM; read-out: Cell growth inhibition %
Procedure: as §1, §2

PC-3 = format: cell-based; details: Homo sapiens; PC-3 (Prostate Cancer), NCI one dose 10 µM; read-out: Cell growth inhibition %
Procedure: as §1, §2

M14 = format: cell-based; details: Homo sapiens; M14 (Melanoma), NCI one dose 10 µM; read-out: Cell growth inhibition %
Procedure: as §1, §2

OVCAR-8 = format: cell-based; details: Homo sapiens; OVCAR-8 (Ovarian Cancer), NCI one dose 10 µM; read-out: Cell growth inhibition %
Procedure: as §1, §2

UACC-62 = format: cell-based; details: Homo sapiens; UACC-62 (Melanoma), NCI one dose 10 µM; read-out: Cell growth inhibition %
Procedure: as §1, §2

SNB-75 = format: cell-based; details: Homo sapiens; SNB-75 (CNS Cancer), NCI one dose 10 µM; read-out: Cell growth inhibition %
Procedure: as §1, §2

RPMI-8226 = format: cell-based; details: Homo sapiens; RPMI-8226 (Leukemia), NCI one dose 10 µM; read-out: Cell growth inhibition %
Procedure: as §1, §2

SK-OV-3 = format: cell-based; details: Homo sapiens; SK-OV-3 (Ovarian Cancer), NCI one dose 10 µM; read-out: Cell growth inhibition %
Procedure: as §1, §2

COLO 205 = format: cell-based; details: Homo sapiens; COLO 205 (Colon Cancer), NCI one dose 10 µM; read-out: Cell growth inhibition %
Procedure: as §1, §2

OVCAR-5 = format: cell-based; details: Homo sapiens; OVCAR-5 (Ovarian Cancer), NCI one dose 10 µM; read-out: Cell growth inhibition %
Procedure: as §1, §2

CCRF-CEM = format: cell-based; details: Homo sapiens; CCRF-CEM (Leukemia), NCI one dose 10 µM; read-out: Cell growth inhibition %
Procedure: as §1, §2

NCI-H522 = format: cell-based; details: Homo sapiens; NCI-H522 (Non-Small Cell Lung Cancer), NCI one dose 10 µM; read-out: Cell growth inhibition %
Procedure: as §1, §2

HCT-15 = format: cell-based; details: Homo sapiens; HCT-15 (Colon Cancer), NCI one dose 10 µM; read-out: Cell growth inhibition %
Procedure: as §1, §2

EKVX = format: cell-based; details: Homo sapiens; EKVX (Non-Small Cell Lung Cancer), NCI one dose 10 µM; read-out: Cell growth inhibition %
Procedure: as §1, §2

SN12C = format: cell-based; details: Homo sapiens, SN 12C (Renal Cancer), NCI one dose 10 µM, read-out: Cell growth inhibition %
Procedure: as §1, §2

UO-31 = format: cell-based; details: Homo sapiens; UO-31 (Renal Cancer), NCI one dose 10 µM; read-out: Cell growth inhibition %
Procedure: as §1, §2

SK-MEL-28 = format: cell-based; details: Homo sapiens; SK-MEL-28 (Melanoma), NCI one dose 10 µM; read-out: Cell growth inhibition %
Procedure: as §1, §2

MDA-MB-435 = format: cell-based; details: Homo sapiens; MDA-MB-435 (Melanoma), NCI one dose 10 µM; read-out: Cell growth inhibition %
Procedure: as §1, §2

UACC-257 = format: cell-based; details: Homo sapiens; UACC-257 (Melanoma), NCI one dose 10 µM; read-out: Cell growth inhibition %
Procedure: as §1, §2

IGROV1 = format: cell-based; details: Homo sapiens, IGROV-1; IGROV1 (Ovarian Cancer), NCI one dose 10 µM; read-out: Cell growth inhibition %
Procedure: as §1, §2

A549/ATCC = format: cell-based; details: Homo sapiens; A549/ATCC (Non-Small Cell Lung Cancer), NCI one dose 10 µM; read-out: Cell growth inhibition %
Procedure: as §1, §2

HOP-62 = format: cell-based; details: Homo sapiens; HOP-62 (Non-Small Cell Lung Cancer), NCI one dose 10 µM; read-out: Cell growth inhibition %
Procedure: as §1, §2

K-562 = format: cell-based, human; details: Homo sapiens, K562; K-562 (Leukemia), NCI one dose 10 µM; read-out: Cell growth inhibition %
Procedure: as §1, §2

HCT-116 = format: cell-based, human; details: Homo sapiens; HCT-116 (Colon Cancer), NCI one dose 10 µM; read-out: Cell growth inhibition %
Procedure: as §1, §2

RXF 393 = format: cell-based, human; details: Homo sapiens; RXF 393 (Renal Cancer), NCI one dose 10 µM; read-out: Cell growth inhibition %
Procedure: as §1, §2

MOLT-4 = format: cell-based, human; details: Homo sapiens; MOLT-4 (Leukemia), NCI one dose 10 µM; read-out: Cell growth inhibition %
Procedure: as §1, §2

T-47D = format: cell-based, human; details: Homo sapiens, T47D; T-47D (Breast Cancer), NCI one dose 10 µM; read-out: Cell growth inhibition %
Procedure: as §1, §2

Molecule `COc1ccc(-c2nc3cc(-c4nnc(SCC(=O)Nc5ccc(C(=O)/C=C/c6ccccc6)cc5)o4)ccc3[nH]2)cc1OC` [Compound 7p, 2-{5-[2-(3,4-Dimethoxyphenyl)-1 H-benzo[d]imidazol-5-yl]-1,3,4-oxadiazol-2-ylthio}-N-{4-[(E)-3-phenylacryloyl]phenyl}acetamide] has an inhibition at 10 µM (BT-549) of 5.86%, an inhibition at 10 µM (MCF7) of 21.7% and an inhibition at 10 µM (SK-MEL-2) of 0%. The inhibition at 10 µM (MALME-3M) was 2.95%, the inhibition at 10 µM (HS 578T) was 3.94% and the inhibition at 10 µM (PC-3) was 0%. The inhibition at 10 µM (M14) was 0%, the inhibition at 10 µM (OVCAR-8) was 0% and the inhibition at 10 µM (UACC-62) was 4.99%. The inhibition at 10 µM (SNB-75) was 9.72%, the inhibition at 10 µM (RPMI-8226) was 36% and the inhibition at 10 µM (SK-OV-3) was 0%. The inhibition at 10 µM (COLO 205) was 0%, the inhibition at 10 µM (OVCAR-5) was 0.55% and the inhibition at 10 µM (CCRF-CEM) was 11.6%. The inhibition at 10 µM (NCI-H522) was 1.56%, the inhibition at 10 µM (HCT-15) was 8.17% and the inhibition at 10 µM (EKVX) was 0%. The inhibition at 10 µM (SN12C) was 5.25%, the inhibition at 10 µM (UO-31) was 11.5% and the inhibition at 10 µM (SK-MEL-28) was 0%. The inhibition at 10 µM (MDA-MB-435) was 0%, the inhibition at 10 µM (UACC-257) was 0% and the inhibition at 10 µM (IGROV1) was 3.63%. For the same molecule, the inhibition at 10 µM (A549/ATCC) was 0%, the inhibition at 10 µM (HOP-62) was 0% and the inhibition at 10 µM (K-562) was 8.36%. It also gave an inhibition at 10 µM (HCT-116) of 10.3%, an inhibition at 10 µM (RXF 393) of 0% and an inhibition at 10 µM (MOLT-4) of 19.5%. For the same molecule, the inhibition at 10 µM (T-47D) was 13.1%.
